Laboratory results taken from article PMC9569971, “New Oxazolo[5,4-d]pyrimidines as Potential Anticancer Agents: Their Design, Synthesis, and In Vitro Biological Activity Research” (International Journal of Molecular Sciences, 2022).

Legend:
[1] = MTT viability assay, L929; assay type: cell-based, murine; details: mouse, L929 fibroblasts, tested 1–500 µM
[2] = MTT viability assay, NHDF; assay type: cell-based, human; details: human, normal human dermal fibroblasts (NHDF), tested 1–500 µM
[3] = tested on: lung adenocarcinoma (A549); test: MTT viability assay, A549; assay type: cell-based, human
[4] = tested on: breast adenocarcinoma (MCF7); test: MTT viability assay, MCF7; assay type: cell-based, human; details: Homo sapiens; MCF7, MTT, tested 1–500 µM
[5] = tested on: metastatic colon adenocarcinoma (LoVo); test: MTT viability assay, LoVo; assay type: cell-based, human
Procedure: When the confluence was greater than 70%, adherent cell lines were detached from the bottle surface with a TrypLE solution and then used in assays or reduced. The cells were collected into centrifuge tubes and centrifuged at 1000× g for 5 min at room temperature. The supernatant was removed to dry. The cell pellets were then resuspended in an appropriate medium. The cells were counted using a Bürker chamber and resuspended in 96-well plates to a cell density of 10,000 cells per well for MTT assay. For the rhodamine accumulation test and the detection of apoptosis assay, cells were seeded at a density of 30,000 per well. In the migration assay, cells were seeded at a density of 20,000 per well, and monolayer formation was awaited.
In this study, normal human dermal fibroblasts (NHDFs), breast cancer cells (MCF7), human lung adenocarcinoma cells (A549), murine fibroblasts (L929), colon adenocarcinoma cells (HT29), and colorectal adenocarcinoma cells (LoVo) were used. All cell lines were cultured in the recommended media. […] The human lung adenocarcinoma cell line A549 and breast cancer cell line MCF-7 were obtained from the ECACC. These cell lines were cultured in Eagle’s minimal essential medium (MEM). Murine fibroblast L929 (Sigma-Aldrich, Merck Group, Headquarters, Darmstadt, Germany; the European Collection of Authenticated Cell Cultures—ECACC) cells were grown in DMEM. […] All media were supplemented with 10% FBS and 100 µg/mL of penicillin–streptomycin.
All compounds were dissolved in DMSO and the reference drugs were dissolved in physiological saline to concentrations of 10 mM. Concentrations from 1 to 500 μM in the media recommended for the cell lines were prepared for the tests.
All of the synthesized derivatives were evaluated via the MTT assay. All cell lines were seeded into 96-well plates at a density of 10,000 cells per well. To allow the cells to adhere to the surface of the plates, they were incubated overnight before the application of the test compounds. […] The tests were performed for concentrations of 1, 5, 10, 25, 50, 100, 250, and 500 μM. The solutions of the test compounds were removed from the culture on the 96-well plates. […] The supernatant was then removed. The violet crystal was dissolved in isopropanol for 30 min by shaking. Absorbance was measured at 570 nm.
Biological assays were performed in three independent replicates, and each replicate used four samples. Three repetitions were made for the ELISA determinations. For the assessment of cytotoxicity, mathematical models were developed using the GraphPad PRISM software, based on which CC50 was determined. The values of CC50 were estimated based on nonlinear regression using the dependence of the biological effect on the molar concentrations of the compounds (four-parameter logistic model with Hill slope).

[6] = tested on: primary colon adenocarcinoma (HT29); test: MTT viability assay, HT29; assay type: cell-based, human; details: for CC50: tested 1–500 µM
[7] = tested on: p53; test: p53 Human ELISA Kit, HT29 lysate; assay type: cell-based; details: lysate of HT29 cells treated with 3g; SD ±0.97
Procedure: The assay was performed on a lysate of the HT29 colon adenocarcinoma cell line treated with compound 3g. The microwells of the 96-well plate were washed 2 times with approximately 400 µL of washing buffer per well. The washing buffer was left in the wells for approximately 15 s prior to aspiration. Care was taken not to scratch the surface of the microwells. After the final rinsing step, the wells were emptied. An absorbent swab was used to remove excess wash buffer. Standard dilutions were applied to the microwell plate. Two rows of human p53 standard were prepared at dilutions ranging from 50.00 to 0.78 U/mL. […] The color change was monitored with an ELISA measured at 620 nm. The colored product was formed in proportion to the quantity of human p53 protein present in the sample and the standard. […] The results were read immediately after the addition of the enzyme stop solution. Absorbance was measured with a spectrophotometer at 450 nm. A standard curve was prepared from 7 dilutions of the human p53 standard from which the values for compound 3g were read.
Biological assays were performed in three independent replicates, and each replicate used four samples. […] For the assessment of cytotoxicity, mathematical models were developed using the GraphPad PRISM software, based on which CC50 was determined. […]

SMILES: Cc1noc(N)c1-c1nc2c(NCCCN(C)C)ncnc2o1 [Compound 3g, 2-(5-Amino-3-methylisoxazol-4-yl)-7-N-[3-(N,N-dimethylamino)propyl]aminooxazolo[5,4-d]pyrimidine]
- CC50 [1]: 83.7 ± 4.42 µM
- CC50 [2]: 156 ± 15.5 µM
- SI (selectivity index) ([3]; CC50 NHDF / CC50 A549): 1.123
- CC50 ([3]; Homo sapiens, A549, MTT, tested 1–500 µM): 138 ± 12.9 µM
- CC50 [4]: 209 ± 9.67 µM
- SI (selectivity index) ([5]; CC50 NHDF / CC50 LoVo): 0.695
- CC50 ([5]; Homo sapiens, LoVo, MTT, tested 1–500 µM): 224 ± 17.1 µM
- SI (selectivity index) ([6]; CC50 NHDF / CC50 HT29): 2.662
- CC50 ([6]; HT29, MTT): 58.4 ± 8.75 µM
- CC50 ([6]; Homo sapiens, HT-29, HT29, MTT): 58.4 µM
- p53 concentration [7]: 4.22 [U/mL]
